From US20200079860A1, “METHODS AND COMPOSITIONS FOR TUMOR THERAPY” (MEMORIAL SLOAN KETTERING CANCER CENTER, priority 2015, published 2020)

Test system: B16F10 cells
Assay: mouse bilateral tumor model (B16 murine melanoma); one tumor injected, contralateral non-injected
Assay type: in vivo, C57BL/6 mice
Description: By injecting only one of two tumors throughout the course of the experiment it is possible to separate the effect of the injected tumor from the “abscopal” effect on the distant non-injected tumor. Once treatment begins, tumors are measured twice weekly for at least 90 days.
Also, unless indicated otherwise, controls were treated with isotype control antibodies and vehicle only. Furthermore, unless indicated otherwise, all experiments were performed using the mouse bilateral tumor model described below and summarized in FIG. 2.
The animals used had large tumors in two opposite flanks. One tumor was injected while the second remained non-injected (FIG. 2), allowing separate analysis of the effect at the injected tumor from the so-called ‘abscopal’ effect at the non-injected tumor, in order to understand how this treatment could benefit patients with metastatic cancer. […] C57BL/6 mice were initially implanted with 5×10^5 syngeneic B16F10 cells intra-dermally in bilateral flanks. 8 days post tumor cell implantation, when bilateral tumors measured ˜0.5 cm, intratumoral (IT) treatment with various test agents was initiated together with intraperitoneal (IP) anti-PD-1 mAb. […]
8 days post tumor cell implantation, when bilateral tumors measured ˜0.5 cm, intratumoral (IT) treatment with agents selected to activate APCs was initiated together with intraperitoneal (IP) anti-PD-1 mAb. […]

O=C1[O][Pt]2([NH][C@@H]3CCCC[C@H]3[NH]2)[O]C1=O [oxaliplatin]
survival on concurrent addition of systemic chemotherapy (added IP to intratumoral MPL, anti-IL10R, and anti-CD40): increased survival

PolyIC
substitution for MPL in the treatment (FIG. 35B): can be substituted for MPL, albeit possibly with slightly reduced activity
